Laboratory results published in patent US8729095B2, “3-(biaryloxy)propionic acid derivatives for prevention and/or treatment of thromboembolic diseases” (Daiichi Sankyo Company, Limited, priority 2009, dated 2014).

System: platelet aggregation induced by ADP in human platelet-rich plasma (PRP)
Assay: Human platelet aggregation inhibitory activity (ADP-induced, platelet-rich plasma)
Format: cell-based
Settings: 8 min, ADP final concentration 20 μM, maximum aggregation rate, measured for 8 minutes
Experimental: A blood collecting syringe containing 1/10 volume of a 3.8% sodium citrate solution was used to collect blood from radial vein of a healthy person. The collected blood was centrifuged at 180×g at room temperature for 10 minutes to separate the supernatant (platelet-rich plasma; PRP). After PRP was separately collected, the remaining blood was centrifuged at 1,600×g for 10 minutes to separately collect platelet-poor plasma (PPP) of the upper layer. PRP was left at rest at 16° C. for 30 minutes, and subsequently used for measurement.
200 μL of the separately collected PRP was dispensed into a cuvette for the aggregation test, and 1 μL of dimethylsulfoxide (control) or a test compound solution diluted with dimethylsulfoxide was added, followed by incubation at 37° C. for 2 minutes. Subsequently, 2 μL of 2 mM ADP was added (final concentration 20 μM) to induce platelet aggregation.
Platelet aggregation was measured for 8 minutes using an aggregometer (MCM HEMA TRACER 313M; MC MEDICAL, INC.). With the light transmittance rate of PPP being set as an aggregation value of 100%, the maximum aggregation rate was determined for each concentration of the test compounds to calculate IC50 values.

Compared with `C[C@@H]1Oc2ncc(F)cc2N(C2CCN(C(=O)c3ccc(-c4ccccc4OCC(C)(C)C(=O)O)cc3F)CC2)C1=O` [Example 1, 3-{[3′-Fluoro-4′-({4-[(3S)-7-fluoro-3-methyl-2-oxo-2,3-dihydro-1H-pyrido[2,3-b][1,4]oxazin-1-yl]piperidin-1-yl}carbonyl)biphenyl-2-yl]oxy}-2,2-dimethylpropanoic acid], `Cc1cnc2c(c1)N(C1CCN(C(=O)c3ccc(-c4ccccc4OCC(C)(C)C(=O)O)cc3F)CC1)C(=O)C(C)O2` (centres unmarked) [Example 4, 3-[(4′-{[4-(3,7-Dimethyl-2-oxo-2,3-dihydro-1H-pyrido[2,3-b][1,4]oxazin-1-yl)piperidin-1-yl]carbonyl}-3′-fluorobiphenyl-2-yl)oxy]-2,2-dimethylpropanoic acid] is 3.8-fold lower in IC50: 15 µM for the first, 4 µM for the second. The second is the more potent here.

First: CC(C)(COc1ccccc1-c1ccc(C(=O)N2CCC(N3C(=O)C(C)(C)Oc4ncc(C(F)(F)F)cc43)CC2)c(F)c1)C(=O)O [Example 3, 3-{[4′-({4-[3,3-Dimethyl-2-oxo-7-(trifluoromethyl)-2,3-dihydro-1H-pyrido[2,3-b][1,4]oxazin-1-yl]piperidin-1-yl}carbonyl)-3′-fluorobiphenyl-2-yl]oxy}-2,2-dimethylpropanoic acid]
Second: CC(C)(COc1ccccc1-c1ccc(C(=O)N2CCC(N3C(=O)C(C)(C)Oc4ncc(Cl)cc43)CC2)c(O)c1)C(=O)O [Example 21, 3-[(4′-{[4-(7-Chloro-3,3-dimethyl-2-oxo-2,3-dihydro-1H-pyrido[2,3-b][1,4]oxazin-1-yl)piperidin-1-yl]carbonyl}-3′-hydroxybiphenyl-2-yl)oxy]-2,2-dimethylpropanoic acid]
The IC50 of the first is 2.3-fold lower: 3.8 µM for the first, 8.7 µM for the second.

Going from `C[C@H](CC(=O)O)Oc1ccccc1-c1ccc(C(=O)N2CCC(N3C(=O)COc4ncc(Cl)cc43)CC2)c(F)c1` [Example 7, (3R)-3-[(4′-{[4-(7-Chloro-2-oxo-2,3-dihydro-1H-pyrido[2,3-b][1,4]oxazin-1-yl)piperidin-1-yl]carbonyl}-3′-fluorobiphenyl-2-yl)oxy]butanoic acid] to `C[C@H](CC(=O)O)Oc1ccc(F)cc1-c1ccc(C(=O)N2CCC(N3C(=O)COc4ncc(Cl)cc43)CC2)c(F)c1` [Example 31, (3R)-3-[(4′-{[4-(7-Chloro-2-oxo-2,3-dihydro-1H-pyrido[2,3-b][1,4]oxazin-1-yl)piperidin-1-yl]carbonyl}-3′,5-difluorobiphenyl-2-yl)oxy]butanoic acid], the IC50 rises from 7.9 µM to 18 µM (2.3-fold).

`C[C@H](CC(=O)O)Oc1ccccc1-c1ccc(C(=O)N2CCC(N3C(=O)CCc4ncc(Cl)cc43)CC2)c(F)c1` [Example 8, (3R)-3-[(4′-{[4-(7-Chloro-2-oxo-3,4-dihydro-1,5-naphthyridin-1(2H)-yl)piperidin-1-yl]carbonyl}-3′-fluorobiphenyl-2-yl)oxy]butanoic acid] and `C[C@H](CC(=O)O)Oc1ccc(F)cc1-c1ccc(C(=O)N2CCC(N3C(=O)CCc4ncc(Cl)cc43)CC2)c(F)c1` [Example 32, (3R)-3-[(4′-{[4-(7-Chloro-2-oxo-3,4-dihydro-1,5-naphthyridin-1(2H)-yl)piperidin-1-yl]carbonyl}-3′,5-difluorobiphenyl-2-yl)oxy]butanoic acid] are within 1.5-fold of each other in IC50: 14 µM for the first, 17 µM for the second.

First: C[C@@H](COc1ccccc1-c1ccc(C(=O)N2CCC(N3C(=O)CCc4ncc(Cl)cc43)CC2)c(F)c1)C(=O)O [Example 12, (2S)-3-[(4′-{[4-(7-Chloro-2-oxo-3,4-dihydro-1,5-naphthyridin-1(2H)-yl)piperidin-1-yl]carbonyl}-3′-fluorobiphenyl-2-yl)oxy]-2-methylpropanoic acid]
Second: CC1(C)Oc2ncc(Cl)cc2N(C2CCN(C(=O)c3ccc(-c4ccccc4OCC4(C(=O)O)CC4)cc3F)CC2)C1=O [Example 23, 1-{[(4′-{[4-(7-Chloro-3,3-dimethyl-2-oxo-2,3-dihydro-1H-pyrido[2,3-b][1,4]oxazin-1-yl)piperidin-1-yl]carbonyl}-3′-fluorobiphenyl-2-yl)oxy]methyl}cyclopropanecarboxylic acid]
The IC50 of the first is 3.1-fold higher: 16 µM for the first, 5.2 µM for the second.

First: Cc1cc(-c2ccccc2OCC(C)(C)C(=O)O)ccc1C(=O)N1CCC(N2C(=O)C3(CC3)Oc3ncc(Cl)cc32)CC1 [Example 15, 3-[(4′-{[4-(7′-Chloro-2′-oxospiro[cyclopropane-1,3′-pyrido[2,3-b][1,4]oxazin]-1′(2′H)-yl)piperidin-1-yl]carbonyl}-3′-methylbiphenyl-2-yl)oxy]-2,2-dimethylpropanoic acid]
Second: CC(C)(COc1ccccc1-c1ccc(C(=O)N2CCC(N3C(=O)C4(CC4)Oc4ncc(Cl)cc43)CC2)c(Cl)c1)C(=O)O [Example 18, 3-[(3′-Chloro-4′-{[4-(7′-chloro-2′-oxospiro[cyclopropane-1,3′-pyrido[2,3-b][1,4]oxazin]-1′(2′H)-yl)piperidin-1-yl]carbonyl}biphenyl-2-yl)oxy]-2,2-dimethylpropanoic acid]
The IC50 of the first is 1.7-fold lower: 5.8 µM for the first, 10 µM for the second. The first is the more potent here.

First: C[C@@H]1Oc2ncc(Cl)cc2N(C2CCN(C(=O)c3ccc(-c4ccccc4OCC(C)(C)C(=O)O)cc3)CC2)C1=O [Example 20, 3-{[4′-({4-[(3S)-7-Chloro-3-methyl-2-oxo-2,3-dihydro-1H-pyrido[2,3-b][1,4]oxazin-1-yl]piperidin-1-yl}carbonyl)biphenyl-2-yl]oxy}-2,2-dimethylpropanoic acid]
Second: CC(C)(COc1ccccc1-c1ccc(C(=O)N2CCC(N3C(=O)C(C)(C)Oc4ncc(Cl)cc43)CC2)c([N+](=O)[O-])c1)C(=O)O [Example 22, 3-[(4′-{[4-(7-Chloro-3,3-dimethyl-2-oxo-2,3-dihydro-1H-pyrido[2,3-b][1,4]oxazin-1-yl)piperidin-1-yl]carbonyl}-3′-nitrobiphenyl-2-yl)oxy]-2,2-dimethylpropanoic acid]
The IC50 of the first is 2-fold lower: 2.8 µM for the first, 5.7 µM for the second. The first is the more potent here.

First: Cc1cnc2c(c1)N(C1CCN(C(=O)c3ccc(-c4ccccc4O[C@H](C)CC(=O)O)cc3F)CC1)C(=O)C(C)(C)O2 [Example 30, (3R)-3-[(4′-{[4-(3,3,7-Trimethyl-2-oxo-2,3-dihydro-1H-pyrido[2,3-b][1,4]oxazin-1-yl)piperidin-1-yl]carbonyl}-3′-fluorobiphenyl-2-yl)oxy]butanoic acid]
Second: C[C@H](C(=O)O)[C@@H](C)Oc1ccccc1-c1ccc(C(=O)N2CCC(N3C(=O)C(C)(C)Oc4ncc(Cl)cc43)CC2)c(F)c1 [Example 33, (2S,3R)-3-[(4′-{[4-(7-Chloro-3,3-dimethyl-2-oxo-2,3-dihydro-1H-pyrido[2,3-b][1,4]oxazin-1-yl)piperidin-1-yl]carbonyl}-3′-fluorobiphenyl-2-yl)oxy]-2-methylbutanoic acid]
The IC50 of the first is 8-fold lower: 2 µM for the first, 16 µM for the second. The first is the more potent here.

Compared with `CC1(C)Cc2ncc(Cl)cc2N(C2CCN(C(=O)c3ccc(-c4cc(F)ccc4OCCC(=O)O)cc3F)CC2)C1=O` [Example 37, 3-[(4′-{[4-(7-Chloro-3,3-dimethyl-2-oxo-3,4-dihydro-1,5-naphthyridin-1(2H)-yl)piperidin-1-yl]carbonyl}-3′,5-difluorobiphenyl-2-yl)oxy]propanoic acid], `C[C@@H](COc1ccc(F)cc1-c1cnc(C(=O)N2CCC(N3C(=O)C(C)(C)Cc4ncc(Cl)cc43)CC2)c(F)c1)C(=O)O` [Example 48, (2S)-3-[2-(6-{[4-(7-Chloro-3,3-dimethyl-2-oxo-3,4-dihydro-1,5-naphthyridin-1(2H)-yl)piperidin-1-yl]carbonyl}-5-fluoropyridin-3-yl)-4-fluorophenoxy]-2-methylpropanoic acid] is 1.8-fold lower in IC50: 6.6 µM for the first, 3.7 µM for the second. The second is the more potent here.

Compared with `C[C@H](CC(=O)O)Oc1ccccc1-c1cnc(C(=O)N2CCC(N3C(=O)C(C)(C)Oc4ncc(Cl)cc43)CC2)c(F)c1` [Example 39, (3R)-3-[2-(6-{[4-(7-Chloro-3,3-dimethyl-2-oxo-2,3-dihydro-1H-pyrido[2,3-b][1,4]oxazin-1-yl)piperidin-1-yl]carbonyl}-5-fluoropyridin-3-yl)phenoxy]butanoic acid], `C[C@@H](COc1ccccc1-c1cnc(C(=O)N2CCC(N3C(=O)C(C)(C)Oc4ncc(Cl)cc43)CC2)c(F)c1)C(=O)O` [Example 47, (2S)-3-[2-(6-{[4-(7-Chloro-3,3-dimethyl-2-oxo-2,3-dihydro-1H-pyrido[2,3-b][1,4]oxazin-1-yl)piperidin-1-yl]carbonyl}-5-fluoropyridin-3-yl)phenoxy]-2-methylpropanoic acid] is 2-fold higher in IC50: 1 µM for the first, 2 µM for the second. The first is the more potent here.

Compared with `C[C@H](CC(=O)O)Oc1ccccc1-c1cnc(C(=O)N2CCC(N3C(=O)[C@H](C)Oc4ncc(Cl)cc43)CC2)c(F)c1` [Example 40, (3R)-3-{2-[6-({4-[(3S)-7-Chloro-3-methyl-2-oxo-2,3-dihydro-1H-pyrido[2,3-b][1,4]oxazin-1-yl]piperidin-1-yl}carbonyl)-5-fluoropyridin-3-yl]phenoxy}butanoic acid], `C[C@H](CC(=O)O)Oc1ccc(F)cc1-c1cnc(C(=O)N2CCC(N3C(=O)[C@H](C)Oc4ncc(Cl)cc43)CC2)c(F)c1` [Example 43, (3R)-3-{2-[6-({4-[(3S)-7-Chloro-3-methyl-2-oxo-2,3-dihydro-1H-pyrido[2,3-b][1,4]oxazin-1-yl]piperidin-1-yl}carbonyl)-5-fluoropyridin-3-yl]-4-fluorophenoxy}butanoic acid] is 2.4-fold higher in IC50: 1.1 µM for the first, 2.6 µM for the second. The first is the more potent here.

For `C[C@@H](COc1ccc(F)cc1-c1cnc(C(=O)N2CCC(N3C(=O)C(C)(C)Oc4ncc(Cl)cc43)CC2)c(F)c1)C(=O)O` [Example 49, (2S)-3-[2-(6-{[4-(7-Chloro-3,3-dimethyl-2-oxo-2,3-dihydro-1H-pyrido[2,3-b][1,4]oxazin-1-yl)piperidin-1-yl]carbonyl}-5-fluoropyridin-3-yl)-4-fluorophenoxy]-2-methylpropanoic acid], the IC50 was 1.7 µM.
